Data set [1] concerns the target recombinant human DPPI (Cathepsin C) (Homo sapiens (Human), UniProt P53634). Description: Inhibition of human DPPI (Cathepsin C). The format is biochemical. The following applies: substrate Gly-Arg-AMC. Summed up:
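Fluorescence read after 30 min room-temperature turnover of 50 μM (final) substrate by recombinant human cathepsin C, pH 6.0 MES/NaCl/DTT/BSA buffer, quenched by Gly-Phe-DMK (1 μM final). Activity as percent of vehicle after background subtraction, used for IC50.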

For data set [2], the target named is recombinant human Cathepsin K (Homo sapiens (Human), UniProt P43235). Description: Inhibition of human Cathepsin K. The format is biochemical. The following applies: substrate Z-Gly-Pro-Arg-AMC. Summed up:
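Fluorogenic Z-Gly-Pro-Arg-AMC cleavage, 60 min at room temperature, after a 10 min enzyme–compound preincubation (enzyme 2 ng/μL; compound 0.1 nM–100 μM; 1% DMSO). Buffer pH 5.5 with sodium acetate, EDTA and L-cysteine; procathepsin first activated 30 min at pH 3.5. E64 (1 μM) stop; IC50 derived from percent of vehicle signal minus background (Ex 360/Em 460 nm).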

A short description of data set [3]: Determination of metabolic stability with human liver microsomes. As to conditions: pooled human liver microsomes; for half-life at 1 μM: human, pH 7.6. In general terms: Microsomes from liver hold many membrane-bound enzymes, among them those of drug oxidation.

Chain of recombinant human DPPI (Cathepsin C) (P53634 231-394): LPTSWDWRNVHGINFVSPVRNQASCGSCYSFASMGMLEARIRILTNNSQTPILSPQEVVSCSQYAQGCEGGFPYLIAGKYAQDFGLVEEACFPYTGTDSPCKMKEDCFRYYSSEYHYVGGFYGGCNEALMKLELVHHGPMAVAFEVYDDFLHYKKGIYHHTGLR
Chain of recombinant human DPPI (Cathepsin C) (P53634 395-463): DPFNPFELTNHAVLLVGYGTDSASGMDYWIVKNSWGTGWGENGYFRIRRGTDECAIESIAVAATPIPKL
Chain of recombinant human DPPI (Cathepsin C) (P53634 25-134): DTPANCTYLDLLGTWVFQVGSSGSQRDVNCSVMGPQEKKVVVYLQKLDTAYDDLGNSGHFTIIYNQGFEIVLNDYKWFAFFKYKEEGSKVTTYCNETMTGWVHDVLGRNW
Chain of recombinant human Cathepsin K (P43235 115-329): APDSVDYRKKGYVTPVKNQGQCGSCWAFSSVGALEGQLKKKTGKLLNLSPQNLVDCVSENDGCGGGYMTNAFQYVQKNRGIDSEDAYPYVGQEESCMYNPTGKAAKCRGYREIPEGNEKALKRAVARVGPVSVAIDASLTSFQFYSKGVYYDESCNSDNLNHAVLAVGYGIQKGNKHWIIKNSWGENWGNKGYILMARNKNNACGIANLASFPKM

In the case of `CN1C(=O)Cc2ccc(-c3cc(F)c(C[C@@H](C#N)NC(=O)[C@H]4N[C@@H]5CC[C@H]4C5)cc3F)cc21` [Example 31], the IC50 in data set [1] was 4.3 nM; in data set [2] it was 7.3 µM. The compound further yielded a half-life at 1 μM in data set [3] of 90 min.
`CCNC(=O)c1coc(-c2ccc(C[C@@H](C#N)NC(=O)[C@H]3N[C@@H]4CC[C@H]3C4)c(F)c2)c1` [Example 242]: the values for the half-inhibitory concentration (IC50) in data set [1] and in data set [2] were 10.9 nM and 2.5 µM, respectively. This compound also returned a half-life at 1 μM in data set [3] greater than 130 min.
For `N#C[C@H](Cc1ccc(-c2cnn(CC3CCOCC3)c2)c(F)c1F)NC(=O)[C@H]1N[C@@H]2CC[C@H]1C2` [Example 218], in that order: 18.9 nM, 26 µM and greater than 130 min.
Regarding `N#Cc1cc(F)c2[nH]c(=O)c3cc(C[C@@H](C#N)NC(=O)[C@H]4N[C@@H]5CC[C@H]4C5)c(F)cc3c2c1` [Example 325], the values for the 50% inhibitory concentration (IC50) in data set [1] and in data set [2] were 1.3 nM and 2.3 µM, respectively. This compound returned a half-life at 1 μM in data set [3] greater than 130 min.
For `N#C[C@H](Cc1ccc(-n2cc(CCN3CCOCC3)nn2)cc1F)NC(=O)[C@H]1N[C@@H]2CC[C@H]1C2` [Example 99], in that order: 21.1 nM, 2.9 µM and greater than 130 min.
As to `CN1C(=O)C(=O)c2ccc(-c3ccc(C[C@@H](C#N)NC(=O)[C@H]4N[C@@H]5CC[C@H]4C5)c(F)c3)cc21` [Example 10], the 50% inhibitory concentration (IC50) in data set [1] was 1.5 nM; in data set [2], 2.7 µM. Moreover, the half-life at 1 μM in data set [3] was greater than 130 min.
For `N#C[C@H](Cc1ccc(-c2ccc(C(N)=O)o2)cc1F)NC(=O)[C@H]1N[C@@H]2CC[C@H]1C2` [Example 167], the 50% inhibitory concentration (IC50) in data set [1] is 3.4 nM; in data set [2] it was 6.3 µM. The same compound yielded a half-life at 1 μM in data set [3] greater than 130 min.
Taken in the same sequence, the figures for `N#C[C@H](Cc1ccc(N2CCN3CCC[C@H]3C2)cc1F)NC(=O)[C@H]1N[C@@H]2CC[C@H]1C2` [Example 270] were 6.3 nM, 6.1 µM and greater than 130 min.
For `N#C[C@H](Cc1ccc(N2CCN(CC3CCCO3)CC2)cc1F)NC(=O)[C@H]1N[C@@H]2CC[C@H]1C2` (stereo partly drawn) [Example 154], in that order: 13.5 nM, 4.6 µM and greater than 130 min.
With `N#C[C@H](Cc1ccc(-c2csc(C(N)=O)c2)cc1F)NC(=O)[C@H]1N[C@@H]2CC[C@H]1C2` [Example 157], the IC50 in data set [1] worked out at 0.9 nM; in data set [2], 7.4 µM. This compound also came in with a half-life at 1 μM in data set [3] greater than 130 min.
For `CN1Cc2cc(-c3ccc(CC(C#N)NC(=O)[C@H]4N[C@@H]5CC[C@H]4C5)c(F)c3)ccc2C1=O` (stereo partly drawn) [Example 76], in that order: 11.7 nM, 5.3 µM and 84 min.
Take `CN1CCc2cc(-c3ccc(C[C@@H](C#N)NC(=O)[C@H]4N[C@@H]5CC[C@H]4C5)c(F)c3)ccc2C1=O` [Example 42]: the results for the 50% inhibitory concentration (IC50) in data set [1] and in data set [2] were 5.3 nM and 2.9 µM, respectively. The half-life at 1 μM in data set [3] is greater than 130 min.
Taken in the same sequence, the figures for `CS(=O)(=O)c1cc(-c2ccc(C[C@@H](C#N)NC(=O)[C@H]3N[C@@H]4CC[C@H]3C4)c(F)c2)ccc1F` [Example 152] were 2.1 nM, 6.1 µM and greater than 130 min.
With `Cc1cc(-c2ccc(CC(C#N)NC(=O)[C@H]3N[C@@H]4CC[C@H]3C4)c(F)c2)n[nH]1` (stereo partly drawn) [Example 58], the IC50 in data set [1] was 8.4 nM; in data set [2], 11.1 µM. Also, the half-life at 1 μM in data set [3] was greater than 130 min.
As to `CS(=O)(=O)c1cc(-c2cc(F)c(CC(C#N)NC(=O)[C@H]3N[C@@H]4CC[C@H]3C4)c(F)c2)ccc1C#N` (stereo partly drawn) [Example 52], the 50% inhibitory concentration (IC50) in data set [1] was 7.6 nM; in data set [2], 17 µM. The same compound displayed a half-life at 1 μM in data set [3] greater than 130 min.
In the case of `CS(C)(=O)=Nc1cccc(-c2ccc(C[C@@H](C#N)NC(=O)[C@H]3N[C@@H]4CC[C@H]3C4)c(F)c2)c1` [Example 259], the IC50 came out at 6 nM in data set [1] and 3.7 µM in data set [2]. The same compound returned a half-life at 1 μM in data set [3] greater than 130 min.
For `N#C[C@H](Cc1ccc(-c2cccc(S(N)(=O)=O)c2)cc1F)NC(=O)[C@H]1N[C@H]2C[C@@H]1[C@@H]1C[C@@H]12` [Example 143], in that order: 6.7 nM, 5.1 µM and greater than 130 min.
Taken in the same sequence, the figures for `CN1CCC2(CC1)CC(c1ccc(C[C@@H](C#N)NC(=O)[C@H]3N[C@@H]4CC[C@H]3C4)c(F)c1)C2` [Example 358] were 22 nM, 9.6 µM and greater than 130 min.
Take `N#C[C@H](Cc1ccc(-n2cc(COc3ccccc3)nn2)cc1F)NC(=O)[C@H]1N[C@@H]2CC[C@H]1C2` [Example 47]: the 50% inhibitory concentration (IC50) in data set [1] was 7.2 nM; in data set [2], 3.4 µM. Besides, the half-life at 1 μM in data set [3] worked out at 84 min.
Take `CS(=O)(=O)c1cc(-c2ccc(CC(C#N)NC(=O)[C@H]3N[C@@H]4CC[C@H]3C4)c(F)c2)ccc1C#N` (stereo partly drawn) [Example 19]: the IC50 in data set [1] stood at 2.8 nM; in data set [2], 5.4 µM. In data set [3], this compound yielded a half-life at 1 μM greater than 130 min.
For `CN(C)C1CCCN(c2ccc(C[C@@H](C#N)NC(=O)[C@H]3N[C@@H]4CC[C@H]3C4)c(F)c2)C1` (stereo partly drawn) [Example 344, (1S,2S,4R)—N-[(1S)-1-cyano-2-[4-[3-(dimethylamino)-1-piperidyl]-2-fluoro-phenyl]ethyl]-3-azabicyclo[2.2.1]heptane-2-carboxamide], in that order: 10 nM, 6.2 µM and 110 min.
Regarding `N#CC(Cc1ccc(-c2cnn(-c3ccccc3)c2)cc1F)NC(=O)[C@H]1N[C@@H]2CC[C@H]1C2` (stereo partly drawn) [Example 78], the IC50 in data set [1] worked out at 12 nM; in data set [2], 6.7 µM. In addition, the “In vitro stability in human liver microsome incubations t½” value in data set [3] (1 μM test compound, 37° C., NADPH) came out at 130 min.
`N#C[C@H](Cc1ccc(-n2cc(C3CC3)nn2)cc1F)NC(=O)[C@H]1N[C@@H]2CC[C@H]1C2` [Example 67]: the IC50 in data set [1] was found to be 9.6 nM; in data set [2], 4.6 µM. Besides, the half-life at 1 μM in data set [3] was determined as 89 min.
For `CCC(O)Cc1cn(-c2ccc(C[C@@H](C#N)NC(=O)[C@H]3N[C@@H]4CC[C@H]3C4)c(F)c2)nn1` (stereo partly drawn) [Example 89], in that order: 15.6 nM, 5.4 µM and greater than 130 min.
Turning to `CC1(C)OC(=O)c2ccc(-c3ccc(C[C@@H](C#N)NC(=O)[C@H]4N[C@@H]5CC[C@H]4C5)c(F)c3)cc21` [Example 156], the IC50 in data set [1] was 0.6 nM; in data set [2], 7.8 µM. The compound further had a half-life at 1 μM in data set [3] of 95 min.
For `N#C[C@H](Cc1ccc(-c2cc(C(N)=O)co2)cc1F)NC(=O)[C@H]1N[C@@H]2CC[C@H]1C2` [Example 239], in that order: 3.4 nM, 2 µM and greater than 130 min.
For `CCC(C)(O)Cc1cn(-c2ccc(C[C@@H](C#N)NC(=O)[C@H]3N[C@@H]4CC[C@H]3C4)c(F)c2)nn1` (stereo partly drawn) [Example 82], the IC50 in data set [1] amounted to 13.1 nM; in data set [2] it was 5.4 µM. In data set [3], this compound registered a half-life at 1 μM greater than 130 min.
For `COCCOCc1cn(-c2ccc(C[C@@H](C#N)NC(=O)[C@H]3N[C@@H]4CC[C@H]3C4)c(F)c2)nn1` [Example 112], in that order: 33.3 nM, 5.6 µM and greater than 130 min.
For `N#CC(Cc1ccc2c(c1)c(=O)[nH]c1c(F)c(F)c(F)cc12)NC(=O)[C@H]1N[C@@H]2CC[C@H]1C2` (stereo partly drawn) [Example 296], the IC50 in data set [1] is 2.9 nM; in data set [2], greater than 30 µM. Also, the half-life at 1 μM in data set [3] was greater than 130 min.
In the case of `Cn1c(=O)c2cc(CC(C#N)NC(=O)[C@H]3N[C@@H]4CC[C@H]3C4)ccc2c2ccc(C#N)cc21` (stereo partly drawn) [Example 303], the IC50 in data set [1] stood at 5 nM; in data set [2], 22.2 µM. In data set [3], this compound showed a half-life at 1 μM greater than 130 min.
Taken in the same sequence, the figures for `CS(=O)(=NC#N)c1ccc(-c2ccc(C[C@@H](C#N)NC(=O)[C@H]3N[C@@H]4CC[C@H]3C4)c(F)c2)cc1` (stereo partly drawn) [Example 263] were 11.8 nM, 2.1 µM and greater than 130 min.
For `N#C[C@H](Cc1ccc(-c2cnn(CC3CCOCC3)c2)cc1F)NC(=O)[C@H]1N[C@@H]2CC[C@H]1C2` [Example 57], in that order: 8.3 nM, 2.3 µM and 95 min.
Taken in the same sequence, the figures for `N#C[C@H](Cc1ccc(N2CCN(CCO)CC2)cc1F)NC(=O)[C@H]1N[C@@H]2CC[C@H]1C2` [Example 190] were 10.9 nM, 3.7 µM and greater than 130 min.
Regarding `N#C[C@H](Cc1ccc(-c2csc(C(=O)NC3CCOCC3)c2)cc1F)NC(=O)[C@H]1N[C@@H]2CC[C@H]1C2` [Example 235], the half-maximal inhibitory concentration (IC50) in data set [1] worked out at 4.7 nM; in data set [2], 3 µM. The same compound showed a half-life at 1 μM in data set [3] greater than 130 min.
Taken in the same sequence, the figures for `N#CC(Cc1ccc(-c2ccc(Cl)nn2)cc1F)NC(=O)[C@H]1N[C@@H]2CC[C@H]1C2` (stereo partly drawn) [Example 108] were 26.4 nM, 9.4 µM and greater than 130 min.
For `CCS(=O)(=O)c1ccc(-c2ccc(CC(C#N)NC(=O)[C@H]3N[C@@H]4CC[C@H]3C4)c(F)c2)cc1` (stereo partly drawn) [Example 71], in that order: 10.8 nM, 4.8 µM and greater than 120 min.
Taken in the same sequence, the figures for `CN1CCC(N2C(=O)Cc3ccc(-c4ccc(C[C@@H](C#N)NC(=O)[C@H]5N[C@@H]6CC[C@H]5C6)c(F)c4)cc32)CC1` [Example 346] were 1 nM, 4 µM and greater than 130 min.

In general, IC50 refers to the concentration that gives 50% inhibition. As a reminder, the half-life is how long it takes for the measured level to halve. Read a low half-life as fast loss.

The record behind these values is patent US8987249B2, “Substituted 2-Aza-bicyclo[2.2.1]heptane-3-carboxylic acid (benzyl-cyano-methyl)-amides inhibitors of Cathepsin C” (Boehringer Ingelheim International GmbH, priority 2013, dated 2015).
